The source of these data is patent US9586931B2 (Merck Sharp & Dohme Corp., priority 2012, dated 2017).

Structures are written as SMILES.

The target of this assay is T1, recombinant human GST-Syk (Homo sapiens, UniProt P43405).
T1 construct: purchased Carna Biosciences 08-176
Description: Homogeneous Time-Resolved Fluorescence (HTRF) assay for the recombinant human Syk enzyme. The format is biochemical. To be noted: recombinant human GST-Syk 5 pM, ATP 25 μM, 10-dose titration 10 μM to 0.508 nM; read-out: rhSYK Activity IC50. Summed up: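 Detection used time-resolved fluorescence 30 min after adding a quench mix (40 mM EDTA, 15 mM Tris pH 7.5, 0.01% Tween 20) containing 2 nM Europium anti-pTyr antibody and 70 nM streptavidin-APC. This followed 45 min of room-temperature peptide phosphorylation by recombinant GST-tagged human Syk.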
For orientation: In TR-FRET formats the signal depends on donor and acceptor labels being close together.
As for `Cc1cc(Nc2cc(C(F)(F)F)ccn2)nc(-c2cn(CC(O)C(C)(C)O)nn2)c1` (stereo not drawn) [Example 10.12, 3-methyl-1-[4-(4-methyl-6-{[4-(trifluoromethyl)pyridin-2-yl]amino}pyridin-2-yl)-1H-1,2,3-triazol-1-yl]butane-2,3-diol], the IC50 turned out to be 23.3 nM. The value for `Cc1cc(Nc2nccc(C(F)F)n2)cc(-c2cn(CC3OC(=O)NC34CC4)nn2)c1` (single isomer, unassigned) [Example 7.17, 7-((4-(3-((4-(difluoromethyl)pyrimidin-2-yl)amino)-5-methylphenyl)-1H-1,2,3-triazol-1-yl)methyl)-6-oxa-4-azaspiro[2.4]heptan-5-one] was 1.1 nM; that for `Cc1cc(Nc2cc(C(F)(F)F)ccn2)nc(-c2cn(Cc3ccc(C(=O)O)cc3)nn2)c1` [Example 5.42, 4-{[4-(4-methyl-6-{[4-(trifluoromethyl)pyridin-2-yl]amino}pyridin-2-yl)-1H-1,2,3-triazol-1-yl]methyl}benzoic acid] was 3.3 nM. With `Cc1cc(Nc2cc(C(F)(F)F)ccn2)nc(-c2cn(CC(O)C(C)(C)C)nn2)c1` (stereo not drawn) [Example 4.25, 3,3-dimethyl-1-[4-(4-methyl-6-{[4-(trifluoromethyl)pyridin-2-yl]amino}pyridin-2-yl)-1H-1,2,3-triazol-1-yl]butan-2-ol], the IC50 was 12.1 nM. To `Cc1cc(Nc2cc(C(F)F)ccn2)nc(-c2cn(CC3CNCCO3)nn2)c1` (single isomer, unassigned) [Example 26.2, N-(4-(difluoromethyl)pyridin-2-yl)-4-methyl-6-(1-(morpholin-2-ylmethyl)-1H-1,2,3-triazol-4-yl)pyridin-2-amine] belongs 3.3 nM. The value for `Cc1cc(Nc2cc(C(F)(F)F)ccn2)nc(-c2cn(CC3(O)CCS(=O)(=O)CC3)nn2)c1` [Example 4.29, 4-{[4-(4-methyl-6-{[4-(trifluoromethyl)pyridin-2-yl]amino}pyridin-2-yl)-1H-1,2,3-triazol-1-yl]methyl}tetrahydro-2H-thiopyran-4-ol 1,1-dioxide] was 8.2 nM; that for `Cc1cc(Nc2cc(C(F)F)ccn2)nc(-c2cn(C3CCCCC3O)nn2)c1` (single isomer, unassigned) [Example 7.23, 2-[4-(6-{[4-(difluoromethyl)pyridin-2-yl]amino}-4-methylpyridin-2-yl)-1H-1,2,3-triazol-1-yl]cyclohexanol] was 3.9 nM. As for `Cc1cc(Nc2cc(C(F)F)ccn2)nc(-c2cn(CC(C)(O)CC#N)nn2)c1` (single isomer, unassigned) [Example 23.1, 4-(4-(6-((4-(difluoromethyl)pyridin-2-yl)amino)-4-methylpyridin-2-yl)-1H-1,2,3-triazol-1-yl)-3-hydroxy-3-methylbutanenitrile], the IC50 was determined as 7.3 nM. To `Cc1ccnc(Nc2cc(C)cc(-c3cn(CC(O)C(F)(F)F)nn3)n2)c1` (racemic) [Example 5.17, 1,1,1-trifluoro-3-(4-{4-methyl-6-[(4-methylpyridin-2-yl)amino]pyridin-2-yl}-1H-1,2,3-triazol-1-yl)propan-2-ol] belongs 128 nM. For the molecule `Cc1cc(Nc2nccc(C(F)(F)F)n2)cc(-c2cn(CC(=O)O)nn2)c1` [Example 5.58, [4-(3-methyl-5-{[4-(trifluoromethyl)pyrimidin-2-yl]amino}phenyl)-1H-1,2,3-triazol-1-yl]acetic acid], the IC50 was 61.3 nM. The value for `Cc1cc(Nc2cc(C(F)(F)F)ccn2)nc(-c2cn(CC3CCCCO3)nn2)c1` (racemic) [Example 5.4, 4-methyl-6-[1-(tetrahydro-2H-pyran-2-ylmethyl)-1H-1,2,3-triazol-4-yl]-N-[4-(trifluoromethyl)pyridin-2-yl]pyridin-2-amine] was 63.5 nM; that for `Cc1cc(Nc2nccc(C)n2)cc(-c2cn(C[C@](C)(O)CO)nn2)c1` (single isomer, unassigned) [Example 21.2, 2-methyl-3-(4-(3-methyl-5-((4-methylpyrimidin-2-yl)amino)phenyl)-1H-1,2,3-triazol-1-yl)propane-1,2-diol] was 2 nM.

In general, IC50 refers to the concentration at which inhibition is half-maximal.
